Results taken from patent publication US20250304620A1, “ANTIMICROBIAL PEPTIDE AND APPLICATION THEREOF” (priority 2023, published 2025).
≈ marks a conversion by molar mass, not a printed value. Marks after values point to notes of the source that are not given here. Non-standard residues stand in square brackets, D forms with d. Residues, ends and D or L forms follow the SMILES beside them. PEG2000 = polyethylene glycol 2000, conjugated to the N-terminus; PEG4000 = polyethylene glycol 4000, conjugated to the C-terminus; PEG200 = polyethylene glycol 200, conjugated to the C-terminus; PEG500 = polyethylene glycol 500, conjugated to the C-terminus; Phe(3,4-Cl2) = N[C@@H](Cc1ccc(Cl)c(Cl)c1)C(=O)O; Phe(4-CF3) = N[C@@H](Cc1ccc(C(F)(F)F)cc1)C(=O)O; Phe(3,4-F2) = N[C@@H](Cc1ccc(F)c(F)c1)C(=O)O; Phe(4-Cl) = N[C@@H](Cc1ccc(Cl)cc1)C(=O)O; Phe(4-F) = N[C@@H](Cc1ccc(F)cc1)C(=O)O; 2Nal = N[C@@H](Cc1ccc2ccccc2c1)C(=O)O; PEG1000 = polyethylene glycol 1000

Key:
[1] = system: Staphylococcus aureus (NRS 384); experiment: microbe, parasite or virus in culture; type: cell-based
Description: According to the Standards of Clinical and Laboratory Standards Institute (CLSI) of the USA for antimicrobial drug susceptibility test operation standards, a micronutrient serial twofold dilution method was used to determine minimum inhibitory concentrations (MICs) of all 60 peptides (S/N: LV-1˜LV-60) against Staphylococcus aureus (NRS 384). The experiment was repeated 5 times in parallel. […] An antibacterial drug Levofloxacin and an AMP Cbf-K16 (sequence of Cbf-K16: […]) were used as positive controls to evaluate the antibacterial effect of the antimicrobial peptides on Staphylococcus aureus (NRS 384).

rabbit red blood cells = type: cell-based; conditions: red cells of rabbit, 1 h
Method: Fresh rabbit blood ([…]) was collected and centrifuged at 500 g for 5 min, a supernatant was discarded, and red blood cells were repeatedly washed with phosphate-buffered saline (PBS, 0.01 M, pH 7.4) until the supernatant was clear. The red blood cells (RBCs) were resuspended to 10 mL, and diluted 25-fold with PBS (0.01 M, pH 7.4) to prepare a red blood cell suspension with a concentration of about 2×10^8 RBC/mL. The AMPs were subjected to gradient dilution with normal saline (0.85%, w/v, NaCl) according to a multiple dilution method, final concentrations of the SMPs were 1.95, 3.9, 7.8, 15.6, 31.3, 62.5, 125, 250, 500, 1000, and 2000 μg/mL. 100 μl of polypeptide solution was taken and added to a 96-well plate with 5 replicates for each concentration; 100 μl of rabbit blood with a red blood cell count of about 2×10^8 RBC/mL was then added to each well, the plate was incubated at 37° C. for 1 h, centrifuged at 500 g for 5 min, 100 μl of supernatant was taken and transferred to a new 96-well plate, and an optical density (OD) at a wavelength of 541 nm was measured using a microplate reader. Triton X-100 (10 mg/mL as a starting concentration, two-fold gradient dilution) was used as a positive control group. A hemolysis rate was calculated using the following formula: Hemolysis rate (%)=[(OD541 of experimental group-OD541 of negative control group)/(OD541 of positive control group−OD541 of negative control group)]×100% Specific results of the hemolysis test are shown in Table 6. Minimum hemolytic concentration (MHC): a lowest drug concentration that can cause 10% hemolysis.

[2] = system: Pseudomonas aeruginosa ATCC 27853; experiment: Injectable formulations on mice infected with peritonitis; type: in vivo, ICR mice; conditions: 5 mg/kg via tail vein, twice a day for 3 days, n = 10
Method: Both female and male ICR mice were used in the test, half of the female and male mice were taken and randomly assigned into groups, with 10 mice in each group, and kept in separate cages. The mice were divided into a blank control group, a negative control group, a positive control Levofloxacin group, and AMPs LV-1 to LV-30 groups. A bacterial suspension of Pseudomonas aeruginosa ATCC 27853 was prepared, a concentration of the suspension was adjusted 1×10^9 CFU/mL for subsequent use. Except for the blank control group, all other mice were injected with the bacterial suspension (0.2 mL, 1×10^9 CFU/mL), into abdominal cavity of the mice, to establish a model. After the model was successfully established, the mice were given drug immediately according to their body weights. Except for the blank control group and the negative control group, the mice in all other groups were administered the corresponding injectable formulations via tail vein, twice a day for 3 consecutive days. The mice were then observed for 14 d. The death of mice in each group was observed, and survival time of the mice was recorded. Results of the effect of the injectable formulations of AMPs LV-1 to LV-30 on the survival time of mice infected with Pseudomonas aeruginosa are shown in Table 10.

[3] = system: Escherichia coli ATCC 25922; experiment: Oral formulations on mice with systemic bacterial infection; type: in vivo, ICR mice; conditions: 5 mg/kg gavage, three times a day for 7 days, n = 10
Method: Both female and male ICR mice were used in the test, half of the female and male mice were taken and randomly assigned into groups, with 10 mice in each group, and kept in separate cages. The mice were divided into a blank control group, a negative control group, a positive control Levofloxacin group, and AMPs LV-1 to LV-30 groups. An Escherichia coli ATCC 25922 bacterial suspension was prepared, a concentration of the suspension was adjusted 1×10^7 CFU/mL for subsequent use. Except for the blank control group, all other mice were injected with the Escherichia coli suspension (0.2 mL, 1×10^7 CFU/mL), into abdominal cavity of the mice, to establish a model. After the model was successfully established, the mice were given drug immediately according to their body weights. Except for the blank control group and the negative control group, the mice in all other groups were gavaged with different compounds, three times a day for 7 consecutive days. The mice were then observed for 14 d. The death of mice in each group was observed, and survival time of the mice was recorded. Results of the effect of the oral formulations of AMPs LV-1 to LV-30 on the survival time of mice infected with Escherichia coli are shown in Table 11.

[4] = Staphylococcus aureus (NRS 384)

| Molecule | MIC against Staphylococcus aureus (NRS 384) ([1]; NRS 384) | MIC against Staphylococcus aureus (NRS 384) [1, 4] | MHC (minimum hemolytic concentration, lowest concentration causing 10% hemolysis) (rabbit red blood cells) | also measured |
| --- | --- | --- | --- | --- |
| CC(=O)N[C@@H](CCCNC(=N)N)C(=O)N[C@@H](CCCNC(=N)N)C(=O)N[C@@H](CC(C)C)C(=O)N[C@@H](CC(C)C)C(=O)N[C@@H](Cc1ccc2ccccc2c1)C(=O)N[C@@H](CCCNC(=N)N)C(=O)N[C@@H](CC(C)C)C(=O)N[C@@H](CCCNC(=N)N)C(=O)N[C@@H](Cc1ccc2ccccc2c1)C(=O)N[C@@H](CCCNC(=N)N)C(=O)N[C@@H](CCCNC(=N)N)C(N)=O [LV-31] (Ac-RRLL[2Nal]RLR[2Nal]RR-NH2) | 4 µg/mL (≈ 2.31 µM) |  | >1000 µg/mL |  |
| CC(=O)N[C@@H](CCCNC(=N)N)C(=O)N[C@@H](CCCCN)C(=O)N[C@@H](CC(C)C)C(=O)N[C@@H](CC(C)C)C(=O)N[C@@H](Cc1ccccc1)C(=O)N[C@@H](CCCNC(=N)N)C(=O)N[C@@H](CC(C)C)C(=O)N[C@@H](CCCCN)C(=O)N[C@@H](Cc1ccc2ccccc2c1)C(=O)N[C@@H](CCCNC(=N)N)C(=O)N[C@@H](CCCCN)C(N)=O [LV-33] (Ac-RKLLFRLK[2Nal]RK-NH2) | 8 µg/mL (≈ 5.01 µM) |  | >1000 µg/mL |  |
| CC(=O)N[C@@H](CCCNC(=N)N)C(=O)N[C@@H](CCCCN)C(=O)N[C@@H](CC(C)C)C(=O)N[C@@H](CC(C)C)C(=O)N[C@@H](Cc1ccc2ccccc2c1)C(=O)N[C@@H](CCCNC(=N)N)C(=O)N[C@@H](CC(C)C)C(=O)N[C@@H](CCCCN)C(=O)N[C@@H](Cc1ccccc1)C(=O)N[C@@H](CCCNC(=N)N)C(=O)N[C@@H](CCCCN)C(N)=O [LV-34] (Ac-RKLL[2Nal]RLKFRK-NH2) | 4 µg/mL (≈ 2.51 µM) |  | >1000 µg/mL |  |
| CC(=O)N[C@@H](CCCNC(=N)N)C(=O)N[C@@H](CCCCN)C(=O)N[C@@H](CC(C)C)C(=O)N[C@@H](CC(C)C)C(=O)N[C@@H](Cc1ccc(F)cc1)C(=O)N[C@@H](CCCCN)C(=O)N[C@@H](CC(C)C)C(=O)N[C@@H](CCCCN)C(=O)N[C@@H](Cc1ccc(F)cc1)C(=O)N[C@@H](CCCCN)C(=O)N[C@@H](CCCNC(=N)N)C(N)=O [LV-35] (Ac-RKLL[Phe(4-F)]KLK[Phe(4-F)]KR-NH2) | 8 µg/mL (≈ 5.15 µM) |  | >1000 µg/mL |  |
| CC(=O)N[C@@H](CCCNC(=N)N)C(=O)N[C@@H](CCCCN)C(=O)N[C@@H](CC(C)C)C(=O)N[C@@H](CC(C)C)C(=O)N[C@@H](Cc1ccc(F)c(F)c1)C(=O)N[C@@H](CCCCN)C(=O)N[C@@H](CC(C)C)C(=O)N[C@@H](CCCCN)C(=O)N[C@@H](Cc1ccc(F)c(F)c1)C(=O)N[C@@H](CCCCN)C(=O)N[C@@H](CCCNC(=N)N)C(N)=O [LV-36] (Ac-RKLL[Phe(3,4-F2)]KLK[Phe(3,4-F2)]KR-NH2) | 4 µg/mL (≈ 2.52 µM) |  | >1000 µg/mL |  |
| CC(=O)N[C@@H](CCCNC(=N)N)C(=O)N[C@@H](CCCCN)C(=O)N[C@@H](CC(C)C)C(=O)N[C@@H](CC(C)C)C(=O)N[C@@H](Cc1ccc(Cl)cc1)C(=O)N[C@@H](CCCCN)C(=O)N[C@@H](CC(C)C)C(=O)N[C@@H](CCCCN)C(=O)N[C@@H](Cc1ccc(Cl)cc1)C(=O)N[C@@H](CCCCN)C(=O)N[C@@H](CCCNC(=N)N)C(N)=O [LV-37] (Ac-RKLL[Phe(4-Cl)]KLK[Phe(4-Cl)]KR-NH2) | 4 µg/mL (≈ 2.52 µM) |  | >1000 µg/mL |  |
| CC(=O)N[C@@H](CCCNC(=N)N)C(=O)N[C@@H](CCCCN)C(=O)N[C@@H](CC(C)C)C(=O)N[C@@H](CC(C)C)C(=O)N[C@@H](Cc1ccc(Cl)c(Cl)c1)C(=O)N[C@@H](CCCCN)C(=O)N[C@@H](CC(C)C)C(=O)N[C@@H](CCCCN)C(=O)N[C@@H](Cc1ccc(Cl)c(Cl)c1)C(=O)N[C@@H](CCCCN)C(=O)N[C@@H](CCCNC(=N)N)C(N)=O [LV-38] (Ac-RKLL[Phe(3,4-Cl2)]KLK[Phe(3,4-Cl2)]KR-NH2) | 8 µg/mL (≈ 4.83 µM) |  | >1000 µg/mL |  |
| CC(=O)N[C@@H](CCCNC(=N)N)C(=O)N[C@@H](CCCCN)C(=O)N[C@@H](CC(C)C)C(=O)N[C@@H](CC(C)C)C(=O)N[C@@H](Cc1ccc(C(F)(F)F)cc1)C(=O)N[C@@H](CCCCN)C(=O)N[C@@H](CC(C)C)C(=O)N[C@@H](CCCCN)C(=O)N[C@@H](Cc1ccc(C(F)(F)F)cc1)C(=O)N[C@@H](CCCCN)C(=O)N[C@@H](CCCNC(=N)N)C(N)=O [LV-39] (Ac-RKLL[Phe(4-CF3)]KLK[Phe(4-CF3)]KR-NH2) | 8 µg/mL (≈ 4.84 µM) |  | >1000 µg/mL |  |
| C[C@H]1COc2c(N3CCN(C)CC3)c(F)cc3c(=O)c(C(=O)O)cn1c23 [Levofloxacin, reference compound] |  |  |  | Number of mice that died on each day after infection: day 1 [2]: 3 Mouse; Number of mice that died on each day after infection: day 2 [2]: 1 Mouse; Number of mice that died on each day after infection: day 3 [2]: 1 Mouse; Number of mice that died on each day after infection: day 4 [2]: 1 Mouse; Number of mice that died on each day after infection: day 5 [2]: 1 Mouse; Average survival times (Days) ([2]; observed for 14 d): 5.9* Days; MIC ([1]; Staphylococcus aureus (NRS 384), read-out: MIC against Staphylococcus aureus (NRS 384)): 1 µg/mL (≈ 2.77 µM); Number of mice that died on each day after infection: day 4 [3]: 2 Mouse; Number of mice that died on each day after infection: day 5 [3]: 2 Mouse; Number of mice that died on each day after infection: day 6 [3]: 1 Mouse; Number of mice that died on each day after infection: day 7 [3]: 1 Mouse; Number of mice that died on each day after infection: day 8 [3]: 1 Mouse; Average survival times (Days) ([3]; observed for 14 d): 8.1* Days |
| Ac-RKLLXRLKXRK-PEG200 [LV-56] (Ac-RKLL[2Nal]RLK[2Nal]RK-PEG200) [polyethylene glycol 200 conjugated to C-terminal; X=3-(2-naphthyl)-alanine] |  | 4 µg/mL |  |  |

Now from value to molecule, other results behind:

| MIC against Staphylococcus aureus (NRS 384) ([1]; NRS 384) | MIC against Staphylococcus aureus (NRS 384) [1, 4] | Molecule | MHC (minimum hemolytic concentration, lowest concentration causing 10% hemolysis) (rabbit red blood cells) | also measured |
| --- | --- | --- | --- | --- |
|  | 8 µg/mL | Ac-RKLLXRLKXRK-PEG500 [LV-57] (Ac-RKLL[2Nal]RLK[2Nal]RK-PEG500) [polyethylene glycol 500 conjugated to C-terminal; X=3-(2-naphthyl)-alanine] |  |  |
|  | 4 µg/mL | Ac-RKLLXRLKXRK-PEG1000 [LV-58] (Ac-RKLL[2Nal]RLK[2Nal]RK-PEG1000) [polyethylene glycol 1000 conjugated to C-terminal; X=3-(2-naphthyl)-alanine] |  |  |
|  | 8 µg/mL | Ac-RKLLXRLKXRK-PEG4000 [LV-60] (Ac-RKLL[2Nal]RLK[2Nal]RK-PEG4000) [polyethylene glycol 4000 conjugated to C-terminal; X=3-(2-naphthyl)-alanine] |  |  |
|  | 4 µg/mL | PEG2000-RKLLXRLKXRK-NH2 [LV-59] (PEG2000-RKLL[2Nal]RLK[2Nal]RK-NH2) [polyethylene glycol 2000 conjugated to N-terminal; X=3-(2-naphthyl)-alanine] |  |  |
